Reference: article PMC11061149, “Protein mimetic 2D FAST rescues alpha synuclein aggregation mediated early and post disease Parkinson’s phenotypes” (Nature Communications, 2024)
Values joined by “and” are separate entries in the source; they are usually repeats but may differ in a detail not shown here. Equal entries are not always repeated.

Columns and labels:
[1] = target: T1, α-Synuclein (αS) aggregation (Homo sapiens, UniProt P37840); test: Thioflavin T (ThT) dye-based αS aggregation assay (de novo); assay type: biochemical; conditions: for ThT intensity of Synuclein with ligand, Average / ThT intensity of Synuclein with ligand, Trial 1-3: sheet S17; for ThT intensity of Synuclein with ligand, Average: average of 3 trials, Synuclein alone 206, ThT control 37; for ThT intensity of Synuclein with ligand, Trial 1-3: individual trials, Synuclein alone average 206, ThT control average 37
T1 construct: made in house; host or cells: E. coli BL21(DE3)
Experimental: We used a 2D FAST approach in OPs to identify potent antagonists of the aggregation of αS. In this approach, we start with a library of monopyridyls with different functional groups. The library of monopyridyls was synthesized using 2-chloro-6-methyl-3-nitropyridine as a common precursor, which was treated with primary alcohols with diverse side chain functionalities via a one-pot reaction (Fig. 1B, a and see Supplementary information for synthetic details). […] We selected the side chains containing hydrophobic, polar, positively charged, and negatively charged functional groups, which mimic the side chains of the amino acids (Fig. 1C). […] The monopyridyl library was screened against the aggregation of 100 μM αS at an equimolar ratio using Thioflavin T (ThT) dye-based aggregation assay (Fig. 1B, b). […] The chloro-dipyridyl was reacted with a library of primary amines/thiols to synthesize a library of dipyridyls (Fig. 1B, e) using a one-pot reaction. […] However, a few dipyridyls required column chromatography to separate them from the starting material side chains because of their very high boiling point (7 out of 21 dipyridyls required column, Supplementary Fig. 1). […]
Aggregation Kinetics were measured according to a previously described protocol. […] The solutions were placed in a ThermoMixer (Eppendorf, Hamberg, Germany) at 37 °C with constant shaking at 1300 rpm (rpm). At different time points, 5 μL aliquots of each αS solution were added to 95 μL PBS containing 50 μM Thioflavin T (ThT) dye in a Costar black 96 well plate (Corning Inc., Kennebunk, ME). ThT fluorescence intensity was measured (λex = 450 nm and λem = 490 nm) on an Infinite M200PRO plate reader (Tecan, Männedorf, Switzerland), and plotted against time to give a sigmoidal curve typical of amyloid aggregation. For the single point ThT aggregation, 100 μM αS, in the absence and presence of ligands, was aggregated under the described conditions and the ThT fluorescence was reported at 96 h. The reported ThT intensity values are the average of each experiment conducted in triplicate, with the error bars representing the standard deviations or standard error of the mean (s.e.m.) as described in the main manuscript.

[2] = system: UA196 worms (human αS and GFP in DA neurons); test: Confocal counting of healthy DA neurons in UA196 worms, early treatment (day two and four); assay type: in vivo, C. elegans; conditions: for number of intact DA neurons in UA196 worms (max. 60): 50 µM ligand on day two and four, day 15 (untreated 13.5); for Number of healthy DA neurons per trial (sheet 7L): UA196 worms + ligand, Day 15, single trials; for Total neurons, UA196 worms+Ligands: one value per trial, day not given for ligand (controls: Day 3, Day 15)
From the text: The aggregation of αS is associated with the neurodegeneration of DA neurons, which is a pathological hallmark of PD. Next, we investigated the neuroprotective effect of NS163 on the intraneuronal αS aggregation-mediated degeneration of DA neurons in a well-established C. elegans PD model (UA196)[20],[72]–[75]. The UA196 worms express both human αS and GFP in DA neurons under the control of the dopamine promoter genotype (Pdat-1::GFP; Pdat-1::α-SYN). The expression and aggregation of αS in six DA neurons that are located within the anterior region of worms lead to progressive neurodegeneration characteristics during the aging of UA196 worms. This strain has been used to gain insights into the PD-associated mechanisms and to assess the neuroprotective effect of ligands against the intraneuronal αS aggregation[20],[72]–[75]. During the aging of worms, αS protein aggregates and degenerates the DA neurons as represented by the gradual loss of cell bodies as observed from day 3 (Fig. 7b, c, filled red arrow) to day 5 (Fig. 7d, e, empty red arrow), to day 15 (Fig. 7f, g, empty red arrow). Additionally, there was fragmentation and blebbing of neurites from day 3 (Fig. 7b, c, filled yellow arrow) to day 5 (Fig. 7d, e, empty yellow arrow), which has been observed by others as well[72]–[75]. The maximum number of healthy DA neurons in one UA196 worm is six on day 3 (no degeneration) and we used 10 worms/biological replicate, which makes a total of 60 healthy DA neurons/biological replicate. Therefore, for each study, the maximum number of healthy DA neurons in UA196 worms is 60 as an average for each biological replicate. […] None of the UA196 worms had all six healthy DA neurons on day 5 (Fig. 7k, -NS163) and there was a gradual decline in the total number of healthy DA neurons in UA196 worms (Supplementary Fig. 26a). […] The average number of intact DA neurons in UA196 worms treated with NS163 was 59.5, 58.7, and 57.3 on day five, 10, and 15, respectively (Fig. 7j, red line). Additionally, the total number of treated worms with all six intact DA neurons were 57, 52, and 47 on day 5, 10, and 15, respectively (Fig. 7k, Supplementary Fig. 26b).
In UA196 strain, human αS and GFP are expressed in DA neurons under control of a dopamine transporter-specific promoter [Pdat-1::α-syn+Pdat-1::GFP], which results in age-dependent neurodegeneration of six DA neurons.
This experiment was performed based on previously described protocols with slight modifications[24],[65],[88]. Briefly, the worm strains (NL5901 or UA196) were bleached at the same time and the eggs were incubated on PLATE 1. On day two, the worms were divided into two batches. One half of the worms were transferred (using M9 buffer) on PLATE 2 (without ligand) and the second half of the worms were transferred to PLATE 3 (with ligand). The concentration of the ligands varied from 10–50 µM as described in the main manuscript. The worms were incubated on PLATE 2 or PLATE 3 up to day 3 at 20 °C in an incubator with constant humidity. On day four, the ligand (10–50 µM, stock conc. = 10 mM in DMSO, DMSO from 0.1–0.5%, v/v) was added again to PLATE 3. For confocal imaging, at least 10 worms per condition (from PLATE 2 or PLATE 3) were transferred to a cover slide containing an anesthetic (40 mM sodium azide), and mounted on glass microscope slide containing 2% agarose pads using a reported protocol. The images of the worms were collected using an Olympus Fluoview FV3000 confocal/2-photon microscope (40 x Plan-Apo/1.3 NA objective with DIC capability) and processed using the OlympusViewer in ImageJ software. For NL5901 worms, the inclusions of the aggregated αS (GFP puncta in the muscle cells) were manually counted (10 worms per condition) for the five-day imaging period (day 5 to day 9) for PLATE 2 or PLATE 3. […]

UA196 worms = test: Confocal counting of healthy DA neurons, post-disease onset PD model of UA196 worms (treatment on day five); assay type: in vivo, C. elegans; conditions: for number of intact healthy DA neurons (max. 60): day 15 (untreated 13.8 / 12.8); for healthy DA neurons per trial: UA196 worms+Ligands, single trials 1-6, day not given; for Healthy DA neurons, UA196 worms+Ligands: individual trials 1-6
Experimental: The UA196 worms were bleached, and the eggs were incubated on PLATE 1. On day two, the UA196 worms were transferred (using M9 buffer) on PLATE 2 (without ligand). On day five, 10 UA196 worms were used to determine the number of healthy DA worms using confocal imaging (as described earlier) prior to the treatment with ligands on day five. In tandem, ~50 worms were transferred to PLATE 3 (with ligand) using M9 buffer (10-20 µL) and the plate was incubated at 20 °C in the incubator. On days 10 and 15, 10 UA196 worms from PLATE 2 (without ligand) and PLATE 3 (with ligand) were used to determine the number of healthy DA worms using confocal imaging (as described earlier). For each condition, six biological replicates were performed and at least 10 technical replicates were used for each biological replicate. […] (n = 6 independent experiments and each n consisted of a minimum of ten technical replicates).

[3] = 100 µM αS + equimolar ligand, comparison with reported ligands Fig. 5f, time 0 hr

SMILES: C=C(c1ccc(C(=O)O)cc1)c1cc2c(cc1C)C(C)(C)CCC2(C)C [Bexarotene]
- ThT fluorescence intensity, Average [1, 3]: 55.6667
- ThT fluorescence intensity, Average ([1]; Fig. 5f profile, time 6 hr): 61.3333
- ThT fluorescence intensity, Average ([1]; Fig. 5f profile, time 12 hr): 52.3333
- ThT fluorescence intensity, Average ([1]; Fig. 5f profile, time 24 hr): 42
- ThT fluorescence intensity, Average ([1]; Fig. 5f profile, time 36 hr): 69.6667
- ThT fluorescence intensity, Average ([1]; Fig. 5f profile, time 48 hr): 159.667
- ThT fluorescence intensity, Average ([1]; Fig. 5f profile, time 72 hr): 195
- ThT fluorescence intensity, Average ([1]; Fig. 5f profile, time 96 hr): 186
- ThT intensity of Synuclein with ligand, Average [1]: 186.333
- ThT intensity of Synuclein with ligand, Trial 1-3 [1]: 176 and 194 and 189
- number of intact DA neurons in UA196 worms (max. 60) [2]: 19.3
- Number of healthy DA neurons per trial (sheet 7L) [2]: 19 and 22 and 20 and 16 and 21 and 18
- Total neurons, UA196 worms+Ligands [2]: 19 and 22 and 20 and 16 and 21 and 18
- number of intact healthy DA neurons (max. 60) (UA196 worms; 50 μM ligand on day five): 13.2
- healthy DA neurons per trial (UA196 worms): 11 and 17 and 13 and 10
- Healthy DA neurons, UA196 worms+Ligands (UA196 worms): 11 and 17 and 13 and 10

SMILES: O=C(O[C@@H]1Cc2c(O)cc(O)cc2O[C@@H]1c1cc(O)c(O)c(O)c1)c1cc(O)c(O)c(O)c1 [EGCG]
- ThT fluorescence intensity, Average [1, 3]: 56
- decrease of the overall ThT intensity ([1]; 100 µM αS, equimolar, after 96 h): ~ 25%
- ThT fluorescence intensity, Average ([1]; Fig. 5f profile, time 6 hr): 50.6667
- ThT fluorescence intensity, Average ([1]; Fig. 5f profile, time 12 hr): 62.3333
- ThT fluorescence intensity, Average ([1]; Fig. 5f profile, time 24 hr): 61.3333
- ThT fluorescence intensity, Average ([1]; Fig. 5f profile, time 36 hr): 75.6667
- ThT fluorescence intensity, Average ([1]; Fig. 5f profile, time 48 hr): 84
- ThT fluorescence intensity, Average ([1]; Fig. 5f profile, time 72 hr): 151.667
- ThT fluorescence intensity, Average ([1]; Fig. 5f profile, time 96 hr): 150.333
- ThT intensity of Synuclein with ligand, Average [1]: 150.333
- ThT intensity of Synuclein with ligand, Trial 1-3 [1]: 126 and 174 and 151
- rescue of the degeneration of DA neurons in UA196 worms, in words ([2]; 50 μM ligand): moderate in rescuing
- number of intact DA neurons in UA196 worms (max. 60) [2]: 30.5
- Number of healthy DA neurons per trial (sheet 7L) [2]: 26 and 33 and 32 and 27 and 31 and 34
- Total neurons, UA196 worms+Ligands [2]: 26 and 33 and 32 and 27 and 31 and 34
- rescue of the degeneration of DA neurons in the post-disease onset PD model, in words (UA196 worms; 50 μM ligand on day five, day 15): moderate in rescuing
- number of intact healthy DA neurons (max. 60) (UA196 worms; 50 μM ligand on day five): 20.5
- healthy DA neurons per trial (UA196 worms): 24 and 17 and 26 and 18 and 21
- Healthy DA neurons, UA196 worms+Ligands (UA196 worms): 24 and 17 and 26 and 18 and 21

SMILES: CCCC(CCC)C(=O)O [Valporic acid]
- ThT fluorescence intensity, Average [1, 3]: 62.3333
- ThT fluorescence intensity, Average ([1]; Fig. 5f profile, time 6 hr): 44
- ThT fluorescence intensity, Average ([1]; Fig. 5f profile, time 12 hr): 66.6667
- ThT fluorescence intensity, Average ([1]; Fig. 5f profile, time 24 hr): 135.333
- ThT fluorescence intensity, Average ([1]; Fig. 5f profile, time 36 hr): 121.333
- ThT fluorescence intensity, Average ([1]; Fig. 5f profile, time 48 hr): 133.333
- ThT fluorescence intensity, Average ([1]; Fig. 5f profile, time 72 hr): 167.333
- ThT fluorescence intensity, Average ([1]; Fig. 5f profile, time 96 hr): 165.667
- ThT intensity of Synuclein with ligand, Average [1]: 165.667
- ThT intensity of Synuclein with ligand, Trial 1-3 [1]: 177.5 and 155 and 164.5
- number of intact DA neurons in UA196 worms (max. 60) [2]: 18.7
- Number of healthy DA neurons per trial (sheet 7L) [2]: 21 and 16 and 22 and 17 and 20
- Total neurons, UA196 worms+Ligands [2]: 21 and 16 and 22 and 17 and 20
- number of intact healthy DA neurons (max. 60) (UA196 worms; 50 μM ligand on day five): 13.5
- healthy DA neurons per trial (UA196 worms): 9 and 17 and 15 and 11 and 16 and 13
- Healthy DA neurons, UA196 worms+Ligands (UA196 worms): 9 and 17 and 15 and 11 and 16 and 13

SMILES: OCCc1ccc(O)cc1 [Tyrosol]
- ThT fluorescence intensity, Average [1, 3]: 49.6667
- ThT fluorescence intensity, Average ([1]; Fig. 5f profile, time 6 hr): 48.3333
- ThT fluorescence intensity, Average ([1]; Fig. 5f profile, time 12 hr): 49.6667
- ThT fluorescence intensity, Average ([1]; Fig. 5f profile, time 24 hr): 78.6667
- ThT fluorescence intensity, Average ([1]; Fig. 5f profile, time 36 hr): 140.667
- ThT fluorescence intensity, Average ([1]; Fig. 5f profile, time 48 hr): 137
- ThT fluorescence intensity, Average ([1]; Fig. 5f profile, time 72 hr): 175.333
- ThT fluorescence intensity, Average ([1]; Fig. 5f profile, time 96 hr): 229.667
- ThT intensity of Synuclein with ligand, Average [1]: 229.667
- ThT intensity of Synuclein with ligand, Trial 1-3 [1]: 238.6 and 233 and 217.4
- number of intact DA neurons in UA196 worms (max. 60) [2]: 21.7
- Number of healthy DA neurons per trial (sheet 7L) [2]: 22 and 23 and 17 and 21 and 24
- Total neurons, UA196 worms+Ligands [2]: 22 and 23 and 17 and 21 and 24
- number of intact healthy DA neurons (max. 60) (UA196 worms; 50 μM ligand on day five): 14.3
- healthy DA neurons per trial (UA196 worms): 12 and 19 and 17 and 11 and 15
- Healthy DA neurons, UA196 worms+Ligands (UA196 worms): 12 and 19 and 17 and 11 and 15
